The values below come from patent publication US20050085557A1, “Therapeutic procedures” (priority 2003, published 2005).

Data set [1] deals with J774.1 macrophages. Briefly: Lipid-loading assay (foam cell formation). The format is cell-based, murine. As to conditions: LDL 100 μg/mL with compound (20 μM), 72 h, unactivated J774.1 macrophages. The method, then:
Macrophages were first grown for 24 h in RPMI-1640 containing 10% fetal bovine serum and then incubated for 72 h in the same media containing LDL (100 μg/mL). Cells were fixed with 4% formaldehyde and stained with hematoxylin and oil red O such that lipid granules stained a darker red color. Magnification×100.
J774.1 macrophages were grown for 24 h in RPMI-1640 containing 10% fetal bovine serum. […] Cells were fixed with 4% formaldehyde and stained with hematoxylin and oil red O such that lipid granules stained a darker red color. Magnification×100.
Lipid-loading assay (foam cellformation). J774.1 macrophages were incubated in ATCC-recommended media containing 10% fetal bovine serum under a controlled atmosphere of 5 or 7% CO2 at 37° C., in 8-well chamber slides. […] At termination, cells were washed twice with PBS (pH 7.4). The cells were then fixed with 6% (v/v) paraformaldehyde in PBS for 30 minutes, rinsed with propylene glycol for 2 minutes and lipids were stained with 5 mg/ml Oil Red O for 8 minutes. The cells were counterstained with Harris' hematoxylin for 45 seconds, and background staining was removed with […] followed by washing once in PBS and once in tap water. […] The number of lipid-laden cells was scored out of a total of at least 100 cells counted in a single field in each slide, and expressed as a percentage of total cells. […]

In data set [2] the target is T1, LDL / apoB-100 (Homo sapiens, UniProt P04114).
T1 construct: Circular dichroism (CD) spectra of LDL (100 μg/ml)
Description: Circular dichroism of LDL secondary structure. As to conditions: LDL 100 μg/ml, compound 10 μM, PBS pH 7.4, 37° C., 48 h; for random coil of LDL after incubation (circular dichroism): normal LDL 27±2%; for a helical structure of LDL after incubation (circular dichroism): normal LDL ~40±2%. The data set is classed as biochemical. In general terms: CD spectra are sensitive to the conformation of chiral molecules.
Description: Circular dichroism. […] Spectra were recorded in the peptidic range (200-260 nm). To increase the signal-to-noise ratio, multiple spectra (three) were averaged for each measurement.

A short description of data set [3]: Aldolization of ketoaldehyde 4a with amino acids (1H NMR). The format is physicochemical. As to conditions: DMSO-d6 (800 μl) and D2O (80 μl) without amino acid. The method, then: Aldolization of ketoaldehyde 4a with amino acids. […] To this solution was added 1 equivalent of either: a) L-proline, […] b) glycine, c) L-lysine hydrochloride or d) L-lysine ethyl ester dihydrochloride. At time points the samples were analyzed by ^1H NMR.

Data set [4] can be described thus: Aldolization of secoketoaldehyde 4a with atherosclerotic artery and blood fractions (1H NMR). The format is in vitro ADME, human. As to conditions: lyophilized PBS. How it is done:
Aldolization of secoketoaldehyde 4a with atherosclerotic artery and blood fractions. […] To this solution was added either a) atherosclerotic artery (2.1 mg) that had been homogenized in PBS (1 ml) in a tissue homogenizer and then lyophilized to dryness, b) lyophilized human blood (1 ml), c) lyophilized human plasma (1 ml) or d) PBS lyophilized (1 ml). At time points samples were removed and analyzed by ^1H NMR vide supra.

Data set [5] concerns human B-lymphocyte (WI-L2) cell line. Briefly: Cytotoxicity assay (LDH release), WI-L2. As to conditions: FIG. 6A; in this concentration range (0-100 μM). The data set is classed as cell-based. The method, then:
Cytotoxicity assays. WI-L2 human B-lymphocyte line, HAAE-1 human abdominal aortic endothelial line, MH-S murine alveolar macrophage line, and J774A.1 murine tissue macrophage line were obtained from the ATCC. Human aortic endothelial cells (HAEC) and human vascular smooth muscle cells (VSMS) were obtained from Cambrex Bio Science. Jurkat E6-IT-lymphocytes were kindly provided by Dr. J. Kaye (The Scripps Research Institute). Cells were cultured in ATCC-recommended media with 10% fetal calf serum. Cells were incubated in a controlled atmosphere at 37° C., with 5 or 7% CO2. For lactate dehydrogenase (LDH) release assays, adherent cells were harvested either by addition of 0.05% trypsin/EDTA or by scraping. The cells obtained were seeded onto 96-well microtiter plates (25,000 cells/well) and allowed to recover for 24-48 h. […] Cytotoxicity was then determined by measuring lactate dehydrogenase (LDH) release from cells in culture. […] 100% Cytotoxicity was defined as the maximum amount of LDH released by dead cells as shown by trypan blue exclusion, or the highest amount of LDH detected upon lysis of cells by 0.9% Triton X-100. The IC50 values were determined by comparison of the raw duplicate data for concentration versus cytotoxicity (%) to non-linear regression analysis (Hill plot) using Graphpad v3.0 software for Macintosh. […]
Background: LDH in the medium is a marker of cell lysis.

Data set [6] relates to T-lymphocyte cell line (Jurkat E6.1). Briefly: Cytotoxicity assay (LDH release), Jurkat E6.1. The data set is classed as cell-based. As to conditions: FIG. 6B; in this concentration range (0-100 μM). How it is done:
Cytotoxicity assays. WI-L2 human B-lymphocyte line, HAAE-1 human abdominal aortic endothelial line, MH-S murine alveolar macrophage line, and J774A.1 murine tissue macrophage line were obtained from the ATCC. Human aortic endothelial cells (HAEC) and human vascular smooth muscle cells (VSMS) were obtained from Cambrex Bio Science. […] Cells were cultured in ATCC-recommended media with 10% fetal calf serum. Cells were incubated in a controlled atmosphere at 37° C., with 5 or 7% CO2. For lactate dehydrogenase (LDH) release assays, adherent cells were harvested either by addition of 0.05% trypsin/EDTA or by scraping. The cells obtained were seeded onto 96-well microtiter plates (25,000 cells/well) and allowed to recover for 24-48 h. Cells were washed gently and media replaced with fresh media containing 5% fetal calf serum. […] Cytotoxicity was then determined by measuring lactate dehydrogenase (LDH) release from cells in culture. […] 100% Cytotoxicity was defined as the maximum amount of LDH released by dead cells as shown by trypan blue exclusion, or the highest amount of LDH detected upon lysis of cells by 0.9% Triton X-100. The IC50 values were determined by comparison of the raw duplicate data for concentration versus cytotoxicity (%) to non-linear regression analysis (Hill plot) using Graphpad v3.0 software for Macintosh. […]

T1 sequence (P04114 28-4563, species assumed): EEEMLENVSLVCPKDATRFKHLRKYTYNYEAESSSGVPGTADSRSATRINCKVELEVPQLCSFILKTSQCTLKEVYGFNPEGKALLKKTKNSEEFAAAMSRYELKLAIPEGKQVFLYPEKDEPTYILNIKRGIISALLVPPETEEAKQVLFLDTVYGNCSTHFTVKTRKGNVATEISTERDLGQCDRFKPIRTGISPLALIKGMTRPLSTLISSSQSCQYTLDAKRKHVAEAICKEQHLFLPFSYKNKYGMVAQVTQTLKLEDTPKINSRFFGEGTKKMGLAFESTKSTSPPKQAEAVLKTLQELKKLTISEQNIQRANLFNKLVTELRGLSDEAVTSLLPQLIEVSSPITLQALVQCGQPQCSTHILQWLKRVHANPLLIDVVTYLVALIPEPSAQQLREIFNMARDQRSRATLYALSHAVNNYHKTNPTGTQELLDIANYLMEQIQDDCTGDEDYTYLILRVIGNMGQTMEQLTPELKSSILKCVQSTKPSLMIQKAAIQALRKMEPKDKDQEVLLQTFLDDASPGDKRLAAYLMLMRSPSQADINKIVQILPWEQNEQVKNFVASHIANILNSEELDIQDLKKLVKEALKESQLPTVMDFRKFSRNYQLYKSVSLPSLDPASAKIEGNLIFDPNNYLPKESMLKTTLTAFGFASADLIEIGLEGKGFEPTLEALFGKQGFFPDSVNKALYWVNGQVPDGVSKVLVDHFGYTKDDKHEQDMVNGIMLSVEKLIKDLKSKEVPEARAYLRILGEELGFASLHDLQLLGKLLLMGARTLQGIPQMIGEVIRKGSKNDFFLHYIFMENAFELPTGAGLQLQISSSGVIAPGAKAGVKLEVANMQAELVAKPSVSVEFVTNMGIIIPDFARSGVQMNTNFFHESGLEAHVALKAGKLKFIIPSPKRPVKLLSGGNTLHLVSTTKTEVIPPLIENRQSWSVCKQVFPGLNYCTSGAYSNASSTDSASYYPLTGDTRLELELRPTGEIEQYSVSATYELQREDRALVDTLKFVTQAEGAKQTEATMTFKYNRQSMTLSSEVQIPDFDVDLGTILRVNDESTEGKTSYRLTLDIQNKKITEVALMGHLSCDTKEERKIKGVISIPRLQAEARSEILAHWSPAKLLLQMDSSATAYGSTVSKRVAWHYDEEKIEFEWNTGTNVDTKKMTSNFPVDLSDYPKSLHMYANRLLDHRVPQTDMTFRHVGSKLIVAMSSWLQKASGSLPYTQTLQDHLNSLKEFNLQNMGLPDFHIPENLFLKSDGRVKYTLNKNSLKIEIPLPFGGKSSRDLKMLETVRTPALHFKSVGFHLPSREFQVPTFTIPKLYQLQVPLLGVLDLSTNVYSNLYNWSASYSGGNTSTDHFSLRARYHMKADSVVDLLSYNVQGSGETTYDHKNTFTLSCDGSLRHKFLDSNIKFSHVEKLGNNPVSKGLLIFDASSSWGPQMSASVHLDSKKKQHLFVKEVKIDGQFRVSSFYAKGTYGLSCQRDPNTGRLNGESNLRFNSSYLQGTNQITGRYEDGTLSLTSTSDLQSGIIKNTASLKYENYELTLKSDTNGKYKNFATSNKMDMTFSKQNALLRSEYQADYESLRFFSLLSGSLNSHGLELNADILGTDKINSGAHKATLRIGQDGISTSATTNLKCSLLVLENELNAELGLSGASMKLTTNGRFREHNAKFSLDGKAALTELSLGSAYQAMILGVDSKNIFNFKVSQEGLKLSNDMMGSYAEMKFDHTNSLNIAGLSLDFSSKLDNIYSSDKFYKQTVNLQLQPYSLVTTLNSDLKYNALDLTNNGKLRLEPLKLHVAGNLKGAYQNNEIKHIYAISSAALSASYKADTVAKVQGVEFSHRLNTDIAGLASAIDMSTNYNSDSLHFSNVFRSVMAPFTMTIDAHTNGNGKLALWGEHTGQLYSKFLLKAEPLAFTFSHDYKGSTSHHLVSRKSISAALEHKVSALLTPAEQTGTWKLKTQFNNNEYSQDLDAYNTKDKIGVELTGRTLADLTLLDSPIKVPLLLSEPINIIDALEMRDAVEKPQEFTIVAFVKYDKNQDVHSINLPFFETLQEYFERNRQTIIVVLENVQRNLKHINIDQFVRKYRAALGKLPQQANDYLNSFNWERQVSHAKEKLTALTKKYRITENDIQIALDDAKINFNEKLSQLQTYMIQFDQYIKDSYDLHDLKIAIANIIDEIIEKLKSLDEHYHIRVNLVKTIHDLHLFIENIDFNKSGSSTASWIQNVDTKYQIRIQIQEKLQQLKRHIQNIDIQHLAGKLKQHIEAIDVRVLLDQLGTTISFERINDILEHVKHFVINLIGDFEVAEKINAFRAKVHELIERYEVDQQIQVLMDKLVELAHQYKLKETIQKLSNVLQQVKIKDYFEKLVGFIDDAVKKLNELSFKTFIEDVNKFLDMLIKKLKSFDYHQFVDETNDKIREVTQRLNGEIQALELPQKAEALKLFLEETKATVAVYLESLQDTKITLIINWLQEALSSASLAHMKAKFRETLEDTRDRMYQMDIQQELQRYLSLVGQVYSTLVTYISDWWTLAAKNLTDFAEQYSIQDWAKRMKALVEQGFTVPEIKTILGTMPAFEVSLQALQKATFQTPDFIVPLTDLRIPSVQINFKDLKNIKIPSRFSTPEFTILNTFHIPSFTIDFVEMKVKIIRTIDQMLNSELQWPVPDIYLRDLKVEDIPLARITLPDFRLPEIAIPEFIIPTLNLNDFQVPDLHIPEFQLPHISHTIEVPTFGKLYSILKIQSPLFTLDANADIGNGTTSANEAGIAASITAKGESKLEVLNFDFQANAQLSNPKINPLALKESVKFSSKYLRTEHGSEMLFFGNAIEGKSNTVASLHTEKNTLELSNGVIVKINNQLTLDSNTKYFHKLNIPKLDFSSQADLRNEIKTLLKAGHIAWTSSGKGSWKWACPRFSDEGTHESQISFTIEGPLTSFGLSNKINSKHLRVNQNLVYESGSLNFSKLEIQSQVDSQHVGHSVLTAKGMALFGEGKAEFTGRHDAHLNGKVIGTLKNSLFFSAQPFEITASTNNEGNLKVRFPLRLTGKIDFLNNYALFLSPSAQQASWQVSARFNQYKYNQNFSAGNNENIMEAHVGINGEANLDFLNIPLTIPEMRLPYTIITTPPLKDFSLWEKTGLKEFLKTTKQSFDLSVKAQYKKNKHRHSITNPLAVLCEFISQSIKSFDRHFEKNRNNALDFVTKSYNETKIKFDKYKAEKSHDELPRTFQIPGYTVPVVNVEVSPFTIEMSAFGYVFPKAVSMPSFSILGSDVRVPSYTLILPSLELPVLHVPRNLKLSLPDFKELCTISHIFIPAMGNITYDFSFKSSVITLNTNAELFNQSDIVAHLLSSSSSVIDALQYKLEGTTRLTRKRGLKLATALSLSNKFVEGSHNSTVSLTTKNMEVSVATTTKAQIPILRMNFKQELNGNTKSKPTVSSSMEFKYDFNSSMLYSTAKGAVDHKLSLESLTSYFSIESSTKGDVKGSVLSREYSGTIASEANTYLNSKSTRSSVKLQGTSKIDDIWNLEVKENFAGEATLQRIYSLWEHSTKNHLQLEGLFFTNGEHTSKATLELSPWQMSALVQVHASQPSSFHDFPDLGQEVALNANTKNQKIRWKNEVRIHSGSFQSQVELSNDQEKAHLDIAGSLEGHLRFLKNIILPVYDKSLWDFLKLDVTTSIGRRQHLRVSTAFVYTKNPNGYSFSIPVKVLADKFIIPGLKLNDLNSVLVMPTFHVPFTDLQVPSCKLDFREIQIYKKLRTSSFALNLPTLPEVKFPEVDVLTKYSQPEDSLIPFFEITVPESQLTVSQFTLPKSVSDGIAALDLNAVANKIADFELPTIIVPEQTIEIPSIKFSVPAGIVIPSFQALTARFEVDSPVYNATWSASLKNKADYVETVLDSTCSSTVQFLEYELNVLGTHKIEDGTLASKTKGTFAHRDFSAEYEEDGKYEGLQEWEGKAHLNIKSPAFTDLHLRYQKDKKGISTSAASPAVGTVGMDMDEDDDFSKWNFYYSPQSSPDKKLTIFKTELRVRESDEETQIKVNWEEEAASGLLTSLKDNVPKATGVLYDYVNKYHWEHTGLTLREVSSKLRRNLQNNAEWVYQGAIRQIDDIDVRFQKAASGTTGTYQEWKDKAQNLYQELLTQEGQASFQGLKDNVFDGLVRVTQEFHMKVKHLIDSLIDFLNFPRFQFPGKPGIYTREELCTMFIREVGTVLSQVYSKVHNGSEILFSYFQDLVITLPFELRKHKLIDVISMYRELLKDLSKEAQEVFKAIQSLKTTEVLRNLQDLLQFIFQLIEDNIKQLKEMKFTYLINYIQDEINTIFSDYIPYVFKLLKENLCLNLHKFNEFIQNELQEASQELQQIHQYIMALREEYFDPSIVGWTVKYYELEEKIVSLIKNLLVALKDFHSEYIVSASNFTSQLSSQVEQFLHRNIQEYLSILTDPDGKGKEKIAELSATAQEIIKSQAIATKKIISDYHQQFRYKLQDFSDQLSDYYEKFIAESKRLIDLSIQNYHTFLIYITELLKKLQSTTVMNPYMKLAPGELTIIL

`CC(C)CCC[C@@H](C)[C@H]1CCC2C(CC=O)C([C@@]3(C)CC[C@H](O)CC3=O)CC[C@@]21C` (stereo partly drawn) [4a, 3β-Hydroxy-5-oxo-5,6-secocholestan-6-al]: the “lipid-loading of macrophages / foam cell formation” value in data set [1] was “foam cells began to appear”. The “random coil of LDL after incubation (circular dichroism)” value in data set [2] was approximately 39±2%. Also, the “a helical structure of LDL after incubation (circular dichroism)” value in data set [2] is recorded as approximately 23±5%. Besides, the “aldolization of 4a (background)” value in data set [3] and in data set [4] was “no aldolization” in each case.

Take `CC(C)CCC[C@@H](C)[C@H]1CCC2C3C(CC[C@@]21C)[C@@]1(C)CC[C@H](O)C[C@@]1(O)[C@@H]3C=O` (stereo partly drawn) [5a, 3β-Hydroxy-5β-hydroxy-B-norcholestane-6β-carboxaldehyde]: in data set [1], the “lipid-loading of macrophages / foam cell formation” value is “foam cells began to appear”. In data set [2], the “random coil of LDL after incubation (circular dichroism)” value is given as 32±+4% and the “a helical structure of LDL after incubation (circular dichroism)” value is recorded as approximately 20±2%.

Turning to `CC(C)CCC[C@@H](C)[C@H]1CC[C@H]2[C@@H]3CC=C4C[C@@H](O)CC[C@]4(C)[C@H]3CC[C@]12C` [compound 3, cholesterol], the “cytotoxicity against B-cell (WI-L2) cell line” value in data set [5] is reported as “No cytotoxicity”. Also, the “cytotoxicity against T-cell (Jurkat) cell line” value in data set [6] is reported as “No cytotoxicity”.
